# ± gives the expanded uncertainty stated by the source.
# Conditions: 101.33 kPa, Liquid, Vibrating tube method
structure (smiles),measurement,setting,value
O [water],mass density,323.15 K,988.035 ± 0.053 kg/m3
same,mass density,328.15 K,985.693 ± 0.055 kg/m3
same,mass density,333.15 K,983.196 ± 0.057 kg/m3
same,mass density,338.15 K,980.551 ± 0.059 kg/m3
same,mass density,343.15 K,977.765 ± 0.061 kg/m3

# Source: the NIST ThermoML archive (doi:10.1021/acs.jced.5b00535)
